# Test results: patent publication US20190350907A1, “METHODS AND PHARMACEUTICAL COMPOSITIONS FOR REDUCING CD95- MEDIATED CELL MOTILITY” (INSERM (INSTITUT NATIONAL DE LA SANTÉ ET DE LA RECHERCHE …, priority 2017, published 2019)
# Where two headings read alike, the source gives them in different places.
# T1: CD95/PLCγ1 interaction (Homo sapiens, UniProt P19174)
# T1 construct: The PLCγ1-SH3 domain (aa 790-851) (C); expressed in transfected cells; host or cells: HEK293T
# T1 sequence (P19174 790-851): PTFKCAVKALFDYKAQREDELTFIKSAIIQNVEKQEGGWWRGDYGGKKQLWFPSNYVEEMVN
# T2: PLCγ1-SH3 domain (aa 790-851) fused to F1 fragment of Renilla luciferase, P19174
# T2 chain: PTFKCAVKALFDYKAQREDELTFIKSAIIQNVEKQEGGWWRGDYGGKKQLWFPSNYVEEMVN
# Key:
# [1] = system: CD95-mediated Ca2+ signaling pathway in Th17 cells; test: CD95-mediated Ca2+ response in Th17 cells; type: cell-based, human; conditions: drugs 1 μM for 1 h, s-CD95L 100 ng/mL, Fluo2 LR-AM
# Description: A. Activated PBLs were loaded with FuraPE3-AM (1 μM) and pre-treated for 1 h with non-toxic concentrations of indicated compounds. T-cells were then stimulated with thapsigargin (1 μM; arrow). Ratio values (R) were normalized to pre-stimulated values (R0) to yield R/R0 values. Data represent means±the SD. B. Th17 cells were sorted from healthy donors and loaded with FuraPE3-AM (1 μM). Th17 cells were pre-treated for 1 h with non-toxic concentrations of ritonavir or diflunisal (1 μM). T-cells were then stimulated with cl-CD95L (100 ng/mL; arrow). Ratio values (R) were normalized to pre-stimulated values (R0) to yield R/R0 values. Data represent means±the SD.
# Human PBLs were sorted using flow cytometry cell sorting to isolate Th17 (A) according to their phenotype (CD3+CD4+CXCR5−CCR6+CXCR3−CD45RA−) and Tfh (B) (CD4+CXCR5+ICOS+PD−1+CD45RA−). Cells were pre-incubated with Indicated drugs (1 μM) for 1 h and then stimulated with 100 ng/mL of s-CD95L. [Ca2+]CYT was assessed in Fluo2 LR-AM (3 μM)-loaded cells. Data represent means±the SD of 3 independent experiments.
# Peripheral blood mononuclear cells (PBMC) were isolated from buffy-coat by density gradient using lymphocyte separation medium (Eurobio, Les Ulis, France). PBMCs were then subjected to selection using a cocktail of antibody-coated magnetic beads: CCR6^+ CXCR3^−CD4^+ cells (Th17 cells) were sorted with Human Th17 Enrichment kit (STEMCELL Technologies, Grenoble, France). Cell sorting efficiency was evaluated by FACS.
# T-cells were loaded with Fura-PE3-AM (1 μM) at room temperature for 30 min in Hank's Balanced Salt Solution (HBSS). After washing, the cells were incubated for 15 min in the absence of Fura-PE3-AM to complete de-esterification of the dye. Cells were placed in a temperature controlled chamber (37° C.) of an inverted epifluorescence microscope (Olympus IX70) equipped with an x40 UApo/340-1.15 W water-immersion objective (Olympus), and fluorescence micrograph images were captured at 510 nm and 12-bit resolution by a fast-scan camera (CoolSNAP fx Monochrome, Photometrics). To minimize UV light exposure, a 4×4 binning function was used. Fura-PE3 was alternately excited at 340 and 380 nm, and the ratios of the resulting images (emission filter at 520 nm) were produced at constant intervals (10 seconds). The Fura-PE3 ratio (Fratio 340/380) images were analyzed offline with Universal Imaging software, including Metafluor and Metamorph. Fratio reflects the intracellular Ca^2+ concentration changes. Each experiment was repeated at least 3 times, and the average of more than 20 single-cell traces per experiment was analyzed.
# [2] = system: CD95-mediated Ca2+ signaling pathway in Tfh cells; test: CD95-mediated Ca2+ response in Tfh cells; type: cell-based, human; conditions: drugs 1 μM for 1 h, s-CD95L 100 ng/mL, Fluo2 LR-AM
# CD95/PLCγ1 interaction = target: T1, CD95/PLCγ1 interaction; test: Renilla luciferase protein-fragment complementation assay (PCA), CD95-CID/PLCγ1-SH3; type: cell-based; conditions: for effect on interaction of CD95 with PLCγ1: result in words
# Description: FIG. 1. […] A. Schematic representation of the protein-fragment complementation assay used with CD95-CID or -DD fused to F2 and PLCγ1-SH3 or FADD-DD fused to F1 to identify inhibitors from the Prestwick library. The Renilla luciferase enzyme was divided into amino-terminal and carboxy-terminal fragments (yellow domains) and fused to the indicated domains. B. Compounds from the Prestwick library were tested against CD95/PLCγ1 or CD95/FADD PCA. […] Inhibition of CD95/FADD interaction is also assessed.
# Light emission indicates refolding of the luciferase and reconstitution of enzyme activity through protein/protein interactions. […] Data represent means±SD of three independent experiments. […] Then, the indicated peptides fused with or without the cell-penetrating domain TAT were incubated at the indicated concentrations for 4 hrs and luminescence was assessed. Data represent means±SD of three independent experiments. […].
# HEK293T cells were electroporated with 5 μg of DNA using BTM-830 electroporation generator (BTX Instrument Division, Harvard Apparatus) with 10 μg of DNA. Transfected cells were cultured for 24 hrs prior to protein complementation assay analyses as previously described (17). Briefly, transfected cells (10^6) were washed, resuspended in 100 μl PBS and deposited in OptiPlate-96 (PerkinElmer, Waltham, Mass., USA). Coelenterazine-h (5 μM, Sigma) was injected to each well and renilla luciferase activity was monitored for the first 10 seconds using Infinite200Pro (Tecan, Männedorf, Switzerland).
# A peptide consisting of the cell-penetrating domain of TAT fused to CID (TAT-CID) binds the SH3 domain of PLCγ1 and thereby, prevents PLCγ1/CD95 interaction and the subsequent induction of the Ca^2+ response (16). […] Briefly, the Renilla luciferase enzyme was divided into two fragments (F1 and F2 fragments). […] Interaction of CD95 with PLCγ1 or FADD allows the reconstitution of RLuc and subsequent light emission (FIG. 1A). The chemical Prestwick library was screened against these PCAs (FIG. 1B). […] These molecules are designated CID inhibitors or CIDINH.
# activated PBLs = test: CD95-mediated cell migration / endothelial transmigration of activated PBLs (Boyden chamber); type: cell-based, human; conditions: result in words
# Description: FIG. 3. Drugs inhibit CD95-mediated Ca′ response and cell migration. A. Activated PBLs were loaded with FuraPE3-AM (1 μM) and pre-treated for 1 h with non-toxic concentrations of indicated compounds. T-cells were then stimulated with cl-CD95L (100 ng/mL; arrow). Ratio values (R) were normalized to pre-stimulated values (R0) to yield R/R0 values. Data represent means±the SD. B. Left panel: using Boyden chamber assay, cell migration of parental H9 cells and their counterpart lacking CD95 (CD95-KO) was assessed. Right panel: activated PBLs were pre-incubated in the presence or absence of the indicated drugs for 1 hour using non-toxic concentration and the CD95-mediated cell migration was assessed by Boyden chambers. C. Th17 cells were sorted from blood of healthy donors (peripheral blood mononuclear cell). FACS analyses showing the efficiency of Th17 (CCR6^+ CXCR3^−) cell sorting from healthy donors PBMCs. D. Th17 cells were pre-incubated in the presence or absence of the indicated drugs for 1 hour using non-toxic concentration and cell migration was assessed by Boyden chambers. After membrane hydration of Boyden chambers (Millipore, Molsheim, France) containing 8 μm pore membranes, 10^5 cells were added to the top chamber. The bottom chamber was filled with low serum (1%)-containing medium in the presence or absence of cl-CD95L (100 ng/ml). Cells were incubated for 24 h. To quantify invasion, cells were fixed with methanol and stained with Giemsa. Stained cells were then removed from the top-side of the membrane using a cotton-tipped swab and five representative pictures for each insert were taken of the invading cells from the reverse side. For each experiment, invading cells were lysed and absorbance at 560 nm was measured. Membranes (3 μm pore size) of a Boyden chamber were hydrated in sterile D-PBS (Millipore, Molsheim, France). Thereafter, activated T-lymphocytes (10^6) were added to the top chamber on a confluent monolayer of HUVEC in a low serum (1%)-containing medium. The bottom chamber was filled with low serum (1%)-containing medium in presence or absence of 100 ng/ml of cl-CD95L. In experiments using human sera, 500 μl of serum from either healthy donors or SLE patients was added to the lower chamber. Cells were cultured for 24 h at 37° C. in a 5% CO2, humidified incubator. Transmigrated cells were counted in the lower reservoir by flow cytometry using a standard of 2.5×10^4 fluorescent beads (Flow-count, Beckman Coulter).
# [3] = target: T2, PLCγ1-SH3 domain (aa 790-851) fused to …
# [4] = target: T2, PLCγ1-SH3 domain (aa 790-851) fused to …; test: Renilla luciferase protein-fragment complementation assay in non-permeabilized HEK cells (CID-CD95-F2 / PLCγ1-SH3-F1), peptide 4 h; displaces CID-CD95
Molecule,effect on CD95-mediated Ca2+ signaling pathway in Th17 cells [1],effect on CD95-mediated Ca2+ signaling pathway in Tfh cells [2],effect on interaction of CD95 with PLCγ1 (CD95/PLCγ1 interaction),effect on endothelial transmigration of PBLs (activated PBLs),also measured
Cc1cccc(C)c1OCC(=O)N[C@@H](Cc1ccccc1)[C@@H](O)C[C@H](Cc1ccccc1)NC(=O)[C@H](C(C)C)N1CCCNC1=O [lopinavir],efficiently abrogated,efficiently abrogated,,,
"TAT-minCID: heptapeptide minCID (TCRKHRK, SEQ ID NO:1) fused with the cell-penetrating domain TAT (not fully specified; chains of the parent or of the whole protein)",,,,,"IC50 (CD95/PLCγ1 interaction; PCA in HEK cells, peptides incubated for 4 hours, read-out: IC50, disruption of CD95/PLCγ1 interaction by peptides): 11.5 µM"
"CN(CCOc1ccc(CC2SC(=O)NC2=O)cc1)c1ccccn1 (stereo not shown) [rosiglitazone, 5-[[4-[2-[methyl(pyridin-2-yl)amino]ethoxy]phenyl]methyl]-1,3-thiazolidine-2,4-dione]",,,efficiently prevented,inhibited,
COC(=O)N[C@H](C(=O)N[C@@H](Cc1ccccc1)[C@@H](O)CN(Cc1ccc(-c2ccccn2)cc1)NC(=O)[C@@H](NC(=O)OC)C(C)(C)C)C(C)(C)C [atazanavir],efficiently abrogated,efficiently abrogated,,,
"COc1ccc(-c2cc(=S)ss2)cc1 [anethole, 5-(4-methoxyphenyl)dithiole-3-thione]",,,efficiently prevented,inhibited,
"COc1cccc2c1C(=O)c1c(O)c3c(c(O)c1C2=O)C[C@@](O)(C(C)=O)C[C@@H]3O[C@H]1C[C@H](N)[C@H](O)[C@H](C)O1 [daunorubicin, (7S,9S)-9-acetyl-7-[(2R,4S,5S,6S)-4-amino-5-hydroxy-6-methyloxan-2-yl]oxy-6,9,11-trihydroxy-4-methoxy-8,10-dihydro-7H-tetracene-5,12-dione]",,,efficiently prevented,inhibited,
CC(C)CN(C[C@@H](O)[C@H](Cc1ccccc1)NC(=O)O[C@H]1CO[C@H]2OCC[C@H]21)S(=O)(=O)c1ccc(N)cc1 [darunavir],efficiently abrogated,efficiently abrogated,,,
KRKEVQKTCRKHRKENQGSHESPTLNPETVAINLSD (modifications not checked),,,,,IC50 [3]: 10.8 µM
"TCRKHRK (modifications not checked) [TAT-minCID (cell-penetrating domain TAT fused to minCID, TCRKHRK)]",,,,,IC50 [3]: 11.5 µM
"TCRKHRK (modifications not checked) [minCID (minimal CID, amino acids 182 to 188 of CD95, TCRKHRK)]",,,,,IC50 [4]: 35.5 µM
